# Experimental data: patent US4292319A, “Antiphlogistic pharmaceutical compositions and method of use” (Boehringer Ingelheim GmbH, priority 1977, dated 1981)
# Like-named read-outs stand apart in the source and are kept apart here.
# Legend:
# [1] = Test for ulcerogenic effect on the stomach of the rat; format: in vivo, rat (Chbb:THOM); details: in vivo, po, oral, 3 subsequent days, read-out: ED50-ulcer
# Method: (§1) (1) Test for ulcerogenic effect on the stomach of the rat
# (§2) The test was carried out on male and female (1:1) Chbb:THOM-rats with a body weight between 130 to 150 gm at the beginning of the study.
# (§3) The test substances (non-steroidal anti-phlogistics or mixtures of these antiphlogistics with pirenzepine dihydrochloride) were administered as triturations in 1% tylose (1 ml/100 gm animal) by way of an esophageal tube once a day on three successive days.
# (§4) Four hours after the last administration (i.e. on the 3rd day) the animals were killed by an over-dose of ether. The stomachs wer dissected, cut along the great curvature and washed under flowing water for subsequent macroscopic evaluation.
# stomach of the rat = assay: as above; format: in vivo, rat (Chbb:THOM); details: oral, 3 subsequent days
# Method: as §1, §2, §3, §4
# [2] = test system: kaolin-induced edema of the rat's hind paw; assay: Test for antiphlogistic effect against the kaolin-induced edema of the rat's hind paw; format: in vivo, rat (Chbb:THOM); details: rat; for ED35: Rattus norvegicus, po, 5 h, kaolin edema; for Thickness of the paw (mean): oral, 5 h after kaolin
# Method: (2) Test for antiphlogistic effect against the kaolin-induced edema of the rat's hind paw (tested substances: A, B, C and D)
# The test was carried out on male Chbb:THOM-rats with a body weight between 125 and 150 gm. According to HILLEBRECHT [Arzneimittel-Forsch. 4, 607 (1954)], a subplantary injection of 0.05 ml of a 10% suspension of kaolin in an aqueous 0.85% sodium chloride solution in the hind paw was used for the provocation of the kaolin edema. The other hind paw was subplantarily injected with the same volume of an aqueous 0.85% sodium chloride solution.
# The measurement of the thickness of the paws was carried out using the technique of DOEPFNER and […] [Int. Arch. Allergy appl. Immunol. 12, 89 (1958)] by way of the determination of the maximum sagittal diameter, using a measuring device with constant pressure, before and 5 hours after the provocation of the edema.
# The test substances (the non-steroidal antiphlogistics or the mixture of non-steroidal antiphlogistics with pirenzepine dihydrochloride) were administered 30 minutes before provocation of the edema as a trituration in 1% tylose (1 ml/[…]) by way of an esophageal tube.
# The diameter of the paw measured before the beginning of the test as well as the increase in diameter of the other paw caused by injection were subtracted from the diameter of the kaolin-treated paw, and this difference, being the real swelling value, was used for the further calculations.
# From the swelling values obtained by administration of different dosages of non-steroidal antiphlogistics with or without the addition of pirenzepine dihydrochloride, using a linear regression analysis according to LINDNER [Statistische Methoden, 4th Ed., pages 148-162, Birkhauser, Basel, Switzerland (1964)], the ED35 values of the antiphlogistics were calculated with the confidence limits according to FIELLER [Quart. J. Pharm. Pharmacol. 17, 117 (1944)], the ED35 being the dosage which reduces the swelling of the paws by 35% in comparison to the control animals.
# ulcer = format: in vivo; details: without pirenzepine dihydrochloride; several hundred cases, two years
# gastro-intestinal tract = details: clinical; depending upon experience, patients and compound primarily used; cited from earlier work
# [3] = test system: gastro-intestinal side-effects caused by non-steroidal antiphlogistics; assay: Clinical tests of suppression of gastro-intestinal side-effects by pirenzepine; format: in vivo
smiles,measurement,setting,value
"COc1ccc2c(c1)c(CC(=O)O)c(C)n2C(=O)c1ccc(Cl)cc1 [B, 1-(4-chloro-benzoyl)-5-methoxy-2-methyl-1H-indole-3-aceticacid]",TD50,[1]; with A 50 mgm/kg,3.3 mg/kg
same,TD50,[1]; with A 100 mgm/kg,4.9 mg/kg
same,TD50,[1]; without A,2.55 mg/kg
same,Ratio of animals with ulcers,"stomach of the rat; antiphlogistic 2 mgm/kg, without A",4/18
same,Ratio of animals with ulcers,stomach of the rat; antiphlogistic 2.8 mgm/kg + A 50 mgm/kg,4/16
same,Ratio of animals with ulcers,stomach of the rat; antiphlogistic 2.8 mgm/kg + A 100 mgm/kg,4/16
same,Ratio of animals with ulcers,"stomach of the rat; antiphlogistic 2.8 mgm/kg, without A",11/18
same,Ratio of animals with ulcers,stomach of the rat; antiphlogistic 4.0 mgm/kg + A 50 mgm/kg,12/16
same,Ratio of animals with ulcers,stomach of the rat; antiphlogistic 4.0 mgm/kg + A 100 mgm/kg,5/15
same,Ratio of animals with ulcers,"stomach of the rat; antiphlogistic 4 mgm/kg, without A",16/18
same,Ratio of animals with ulcers,stomach of the rat; antiphlogistic 5.66 mgm/kg + A 50 mgm/kg,13/15
same,Ratio of animals with ulcers,stomach of the rat; antiphlogistic 5.66 mgm/kg + A 100 mgm/kg,8/15
same,Ratio of animals with ulcers,stomach of the rat; antiphlogistic 8.0 mgm/kg + A 100 mgm/kg,15/15
same,ED35,[2]; with A 100 mgm/kg,3 mg/kg
same,ED35,[2]; without A,4.3 mg/kg
same,Thickness of the paw (mean),[2]; antiphlogistic 1.5 mgm/kg + A 100 mgm/kg,200.3 10^-2 mm
same,Thickness of the paw (mean),"[2]; antiphlogistic 1.5 mgm/kg, without A",214.8 10^-2 mm
same,Thickness of the paw (mean),[2]; antiphlogistic 3.0 mgm/kg + A 100 mgm/kg,178.3 10^-2 mm
same,Thickness of the paw (mean),"[2]; antiphlogistic 3.0 mgm/kg, without A",189.0 10^-2 mm
same,Thickness of the paw (mean),[2]; antiphlogistic 6.0 mgm/kg + A 100 mgm/kg,162.9 10^-2 mm
same,Thickness of the paw (mean),"[2]; antiphlogistic 6.0 mgm/kg, without A",164.5 10^-2 mm
same,ulcer rate,ulcer,37%
same,"gastro-intestinal incompatabilities encountered, share of all cases",gastro-intestinal tract,25-37%
"CN1CCN(CC(=O)N2c3ccccc3C(=O)Nc3cccnc32)CC1 [pirenzepine, 5,11-dihydro-11-[(4-methyl-1-piperazinyl)-acetyl]-6H-pyrido[2,3-b] [1,4] benzodiazepin-6-one]",incompatibilities between pirenzepine and non-steroidal antiphlogistics,[3]; combined administration,not observed any incompatibilities
same,mucous membrane protection by single therapeutic doses at 12-hour intervals,[3]; single therapeutic doses at 12-hour intervals,sufficient to assure round-the-clock mucous membrane protection
